Test results reported in patent US9493455B2, “Azaindole derivatives as inhibitors of protein kinases” (ORIBASE PHARMA, priority 2012, dated 2016).

How the values were obtained:
BRAF = target: T1, BRAF (Homo sapiens, UniProt P15056); assay: In vitro kinase assay (Z′-LYTE); type: biochemical; conditions: compound 100 nM; ATP 100 μM; read-out: % of inhibition of the kinase compared to the control
T1 construct: purchased Invitrogen
Outline: (§1)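 Read-out is a ratiometric FRET signal (donor/acceptor emission, 400 nm excitation) from a doubly labelled peptide, whose cleavage by a development protease depends on its phosphorylation state. ATP used at apparent Km in HEPES pH 7.5 buffer with MgCl2; compounds at 100 nM, or 10 μM for ABL T315I.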

EGFR (ErbB1) = target: T2, EGFR (ErbB1) (Homo sapiens, UniProt P00533); assay: In vitro kinase assay (Z′-LYTE); type: biochemical; conditions: read-out: % of inhibition of the kinase compared to the control
T2 construct: purchased Invitrogen
Outline: as §1

FGFR2 = target: T3, FGFR2 (Homo sapiens, UniProt P21802); assay: In vitro kinase assay (Z′-LYTE); type: biochemical; conditions: read-out: % of inhibition of the kinase compared to the control
T3 construct: purchased Invitrogen
T3 sequence (P21802 22-821): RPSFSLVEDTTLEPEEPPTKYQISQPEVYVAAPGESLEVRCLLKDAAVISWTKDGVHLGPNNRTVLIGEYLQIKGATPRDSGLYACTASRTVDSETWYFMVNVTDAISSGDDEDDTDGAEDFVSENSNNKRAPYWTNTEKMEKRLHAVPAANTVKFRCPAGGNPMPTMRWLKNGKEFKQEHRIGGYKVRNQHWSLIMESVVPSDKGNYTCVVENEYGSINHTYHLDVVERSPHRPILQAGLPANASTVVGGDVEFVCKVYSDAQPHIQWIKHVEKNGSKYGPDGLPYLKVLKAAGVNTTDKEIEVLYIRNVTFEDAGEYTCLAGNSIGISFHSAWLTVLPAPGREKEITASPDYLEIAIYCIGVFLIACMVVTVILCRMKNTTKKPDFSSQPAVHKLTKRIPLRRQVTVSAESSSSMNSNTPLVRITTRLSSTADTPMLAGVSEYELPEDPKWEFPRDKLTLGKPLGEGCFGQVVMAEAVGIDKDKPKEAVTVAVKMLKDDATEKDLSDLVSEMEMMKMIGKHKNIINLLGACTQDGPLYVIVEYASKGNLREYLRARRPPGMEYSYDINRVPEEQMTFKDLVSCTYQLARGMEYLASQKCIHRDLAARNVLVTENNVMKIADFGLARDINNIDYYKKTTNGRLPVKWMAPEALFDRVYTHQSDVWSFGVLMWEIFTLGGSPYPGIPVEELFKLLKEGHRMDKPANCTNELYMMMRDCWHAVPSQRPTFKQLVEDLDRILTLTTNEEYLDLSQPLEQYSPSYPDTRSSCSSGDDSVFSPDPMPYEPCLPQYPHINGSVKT
Outline: as §1

KDR (VEGFR2) = target: T4, KDR (VEGFR2) (Homo sapiens, UniProt P35968); assay: In vitro kinase assay (Z′-LYTE); type: biochemical; conditions: read-out: % of inhibition of the kinase compared to the control
T4 construct: purchased Invitrogen
T4 sequence (P35968 20-1356): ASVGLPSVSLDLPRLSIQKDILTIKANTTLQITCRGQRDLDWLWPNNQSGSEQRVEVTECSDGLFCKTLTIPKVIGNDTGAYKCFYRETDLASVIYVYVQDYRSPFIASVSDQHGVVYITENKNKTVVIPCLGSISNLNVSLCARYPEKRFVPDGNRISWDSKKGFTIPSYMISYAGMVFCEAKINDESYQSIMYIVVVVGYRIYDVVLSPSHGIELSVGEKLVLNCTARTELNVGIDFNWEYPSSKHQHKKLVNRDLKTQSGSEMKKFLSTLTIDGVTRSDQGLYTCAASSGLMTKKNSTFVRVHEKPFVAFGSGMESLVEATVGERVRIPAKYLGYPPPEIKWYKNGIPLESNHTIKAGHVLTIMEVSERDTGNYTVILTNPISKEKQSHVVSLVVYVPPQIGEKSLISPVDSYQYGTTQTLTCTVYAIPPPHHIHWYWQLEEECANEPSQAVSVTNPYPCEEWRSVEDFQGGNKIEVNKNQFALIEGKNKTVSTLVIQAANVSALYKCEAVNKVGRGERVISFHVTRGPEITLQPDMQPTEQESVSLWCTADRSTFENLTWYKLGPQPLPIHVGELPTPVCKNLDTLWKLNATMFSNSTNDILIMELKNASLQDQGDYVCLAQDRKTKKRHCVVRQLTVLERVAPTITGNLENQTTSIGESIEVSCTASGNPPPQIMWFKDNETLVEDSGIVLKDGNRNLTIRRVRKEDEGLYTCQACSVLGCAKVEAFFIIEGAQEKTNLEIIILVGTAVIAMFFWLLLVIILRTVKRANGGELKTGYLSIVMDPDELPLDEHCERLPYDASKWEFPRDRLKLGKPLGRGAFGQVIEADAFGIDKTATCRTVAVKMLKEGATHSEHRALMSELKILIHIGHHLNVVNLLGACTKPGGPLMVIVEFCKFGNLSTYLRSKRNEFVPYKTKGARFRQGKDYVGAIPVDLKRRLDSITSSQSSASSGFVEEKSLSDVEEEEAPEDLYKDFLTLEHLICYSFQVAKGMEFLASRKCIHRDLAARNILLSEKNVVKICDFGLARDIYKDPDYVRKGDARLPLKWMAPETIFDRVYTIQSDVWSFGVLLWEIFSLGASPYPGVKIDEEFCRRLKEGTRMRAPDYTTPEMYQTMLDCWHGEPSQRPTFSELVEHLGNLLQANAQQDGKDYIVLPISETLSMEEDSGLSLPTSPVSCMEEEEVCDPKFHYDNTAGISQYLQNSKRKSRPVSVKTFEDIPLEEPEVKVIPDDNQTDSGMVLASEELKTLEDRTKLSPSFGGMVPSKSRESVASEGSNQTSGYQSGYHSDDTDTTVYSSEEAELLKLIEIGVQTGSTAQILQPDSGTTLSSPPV
Outline: as §1

PDGFRA (PDGFR alpha) = target: T5, PDGFRA (PDGFR alpha) (Homo sapiens, UniProt P16234); assay: In vitro kinase assay (Z′-LYTE); type: biochemical; conditions: read-out: % of inhibition of the kinase compared to the control
T5 construct: purchased Invitrogen
T5 sequence (P16234 24-1089): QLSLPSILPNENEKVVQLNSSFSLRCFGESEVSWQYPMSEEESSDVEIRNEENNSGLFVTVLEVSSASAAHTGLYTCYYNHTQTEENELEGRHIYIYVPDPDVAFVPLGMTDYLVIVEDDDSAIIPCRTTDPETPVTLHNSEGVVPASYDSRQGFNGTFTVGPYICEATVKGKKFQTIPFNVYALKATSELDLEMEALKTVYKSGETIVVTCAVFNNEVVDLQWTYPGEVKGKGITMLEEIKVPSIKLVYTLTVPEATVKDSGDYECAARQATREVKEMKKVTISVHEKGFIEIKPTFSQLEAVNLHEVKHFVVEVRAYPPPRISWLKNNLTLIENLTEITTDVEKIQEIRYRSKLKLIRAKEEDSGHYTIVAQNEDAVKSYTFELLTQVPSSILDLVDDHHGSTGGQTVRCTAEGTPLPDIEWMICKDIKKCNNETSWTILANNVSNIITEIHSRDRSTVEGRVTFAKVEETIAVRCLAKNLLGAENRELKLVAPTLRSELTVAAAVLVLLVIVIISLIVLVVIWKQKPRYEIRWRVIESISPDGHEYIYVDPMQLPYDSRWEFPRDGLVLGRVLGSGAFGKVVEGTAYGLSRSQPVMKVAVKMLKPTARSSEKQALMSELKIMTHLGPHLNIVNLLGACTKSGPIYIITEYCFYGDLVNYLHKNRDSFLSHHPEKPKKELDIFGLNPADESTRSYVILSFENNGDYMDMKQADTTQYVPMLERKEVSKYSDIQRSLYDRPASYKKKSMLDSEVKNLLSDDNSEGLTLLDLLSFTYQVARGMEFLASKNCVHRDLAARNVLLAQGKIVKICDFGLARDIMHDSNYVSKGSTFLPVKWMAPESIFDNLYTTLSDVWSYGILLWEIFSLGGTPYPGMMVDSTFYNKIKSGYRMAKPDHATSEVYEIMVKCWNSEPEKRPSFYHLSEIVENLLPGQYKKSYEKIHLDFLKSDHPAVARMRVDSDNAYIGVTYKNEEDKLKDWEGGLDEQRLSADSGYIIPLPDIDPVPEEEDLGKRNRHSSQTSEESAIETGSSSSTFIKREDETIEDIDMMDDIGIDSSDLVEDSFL
Outline: as §1

SRC = target: T6, SRC (Homo sapiens, UniProt P12931); assay: In vitro kinase assay (Z′-LYTE); type: biochemical; conditions: read-out: % of inhibition of the kinase compared to the control
T6 construct: purchased Invitrogen
Outline: as §1

A549 = assay: In vitro cell proliferation assay (MTT); type: cell-based; conditions: Homo sapiens, A549, 72 h
Outline: (§2)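 MTT read-out of proliferation after 72 hr compound exposure; 5×10^3 cells/well, duplicate wells, dose range 10 nM–3 μM.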

HUVEC = assay: In vitro cell proliferation assay (MTT); type: cell-based; conditions: Homo sapiens, 72 h
Description: Cancer cell lines (5×10^3 cells per well) or HUVEC (1×10^4 cells per well) or HRMEC (1×10^4 cells per well) were distributed in 96-well plates and incubating in duplicate with escalating concentrations (10 nM to 3 μM) of compounds for 72 hr. Cell proliferation was measured using MTT (3 [4,5-dimethylthiazol-2-yl]-2,5-diphenyltetrazolium bromide).

HeLa = assay: In vitro cell proliferation assay (MTT); type: cell-based; conditions: Homo sapiens, 72 h
Outline: as §2

HepG2 = assay: In vitro cell proliferation assay (MTT); type: cell-based; conditions: Homo sapiens, HepG2, 72 h
Outline: as §2

MDA-MB-231 = assay: In vitro cell proliferation assay (MTT); type: cell-based; conditions: Homo sapiens, MDA-MB-231, 72 h
Outline: as §2

EGFR (ErbB1) T790M L858R = target: T7, EGFR (ErbB1) T790M L858R (Homo sapiens, UniProt P00533, L858R/T790M); assay: In vitro kinase assay (Z′-LYTE); type: biochemical; conditions: read-out: % of inhibition of the kinase compared to the control
T7 construct: purchased Invitrogen
Outline: as §1

H1975 = assay: In vitro cell proliferation assay (MTT); type: cell-based; conditions: Homo sapiens, NCI-H1975, 72 h
Outline: as §2

HT29 = assay: In vitro cell proliferation assay (MTT); type: cell-based; conditions: Homo sapiens, HT-29, 72 h
Outline: as §2

HuCCT1 = assay: In vitro cell proliferation assay (MTT); type: cell-based; conditions: Homo sapiens, HuCCT-1, 72 h
Outline: as §2

HuH6 Clone 5 = assay: In vitro cell proliferation assay (MTT); type: cell-based; conditions: HUH-6-clone5, 72 h
Outline: as §2

HuH7 = assay: In vitro cell proliferation assay (MTT); type: cell-based; conditions: Homo sapiens, Huh-7, 72 h
Outline: as §2

ABL = target: T8, ABL (Homo sapiens, UniProt P00519); assay: In vitro kinase assay (Z′-LYTE); type: biochemical; conditions: read-out: % of inhibition of the kinase compared to the control
T8 construct: purchased Invitrogen

ABL T315I = target: T9, ABL T315I (Homo sapiens, UniProt P00519, T315I); assay: In vitro kinase assay (Z′-LYTE); type: biochemical; conditions: read-out: % of inhibition of the kinase compared to the control
T9 construct: purchased Invitrogen
Outline: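 Percent inhibition is derived from a coupled-enzyme fluorescence format in which unphosphorylated FRET peptide is preferentially proteolysed. Compounds are screened once at 100 nM (10 μM against ABL T315I) in 1% DMSO, with ATP at its apparent Km.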

FGFR1 = target: T10, FGFR1 (Homo sapiens, UniProt P11362); assay: In vitro kinase assay (Z′-LYTE); type: biochemical; conditions: read-out: % of inhibition of the kinase compared to the control
T10 construct: purchased Invitrogen
Outline: as §1

PDGFRB = target: T11, PDGFRB (Homo sapiens, UniProt P09619); assay: In vitro kinase assay (Z′-LYTE); type: biochemical; conditions: read-out: % of inhibition of the kinase compared to the control
T11 construct: purchased Invitrogen
T11 sequence (P09619 33-1106): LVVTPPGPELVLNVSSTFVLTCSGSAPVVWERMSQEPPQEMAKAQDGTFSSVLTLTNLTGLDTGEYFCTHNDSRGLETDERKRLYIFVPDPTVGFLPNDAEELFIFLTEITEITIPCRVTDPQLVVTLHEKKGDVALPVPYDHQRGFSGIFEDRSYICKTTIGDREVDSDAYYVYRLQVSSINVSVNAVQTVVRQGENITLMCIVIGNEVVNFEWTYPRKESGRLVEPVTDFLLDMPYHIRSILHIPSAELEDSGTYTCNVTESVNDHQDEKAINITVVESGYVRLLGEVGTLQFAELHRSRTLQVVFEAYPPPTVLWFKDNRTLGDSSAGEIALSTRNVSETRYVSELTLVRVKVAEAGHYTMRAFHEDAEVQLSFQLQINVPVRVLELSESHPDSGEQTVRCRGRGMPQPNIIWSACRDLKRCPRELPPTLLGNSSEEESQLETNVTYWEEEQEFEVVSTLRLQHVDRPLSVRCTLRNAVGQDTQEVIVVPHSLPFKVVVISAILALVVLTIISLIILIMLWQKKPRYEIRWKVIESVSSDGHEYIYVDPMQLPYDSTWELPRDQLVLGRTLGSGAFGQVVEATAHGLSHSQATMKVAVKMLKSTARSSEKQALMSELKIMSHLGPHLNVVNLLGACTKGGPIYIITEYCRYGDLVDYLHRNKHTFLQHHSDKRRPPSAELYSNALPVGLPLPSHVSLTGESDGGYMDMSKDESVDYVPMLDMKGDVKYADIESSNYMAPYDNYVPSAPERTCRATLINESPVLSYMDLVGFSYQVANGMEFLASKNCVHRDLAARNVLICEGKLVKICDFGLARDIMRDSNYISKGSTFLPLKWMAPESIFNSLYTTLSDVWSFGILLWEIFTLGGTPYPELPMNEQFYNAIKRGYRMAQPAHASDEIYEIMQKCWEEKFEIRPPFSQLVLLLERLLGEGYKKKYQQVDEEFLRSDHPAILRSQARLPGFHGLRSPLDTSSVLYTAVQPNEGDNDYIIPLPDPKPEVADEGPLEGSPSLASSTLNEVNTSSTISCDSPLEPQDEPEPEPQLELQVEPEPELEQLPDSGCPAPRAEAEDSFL
Outline: as §1

VEGFR1 = target: T12, VEGFR1 (Homo sapiens, UniProt P17948); assay: In vitro kinase assay (Z′-LYTE); type: biochemical; conditions: read-out: % of inhibition of the kinase compared to the control
T12 construct: purchased Invitrogen
Outline: as §1

BxPC-3 = assay: In vitro cell proliferation assay (MTT); type: cell-based; conditions: Homo sapiens, BXPC-3, 72 h
Outline: as §2

PC-3 = assay: In vitro cell proliferation assay (MTT); type: cell-based; conditions: Homo sapiens, PC-3, 72 h
Outline: as §2

T1 sequence (P15056 whole entry): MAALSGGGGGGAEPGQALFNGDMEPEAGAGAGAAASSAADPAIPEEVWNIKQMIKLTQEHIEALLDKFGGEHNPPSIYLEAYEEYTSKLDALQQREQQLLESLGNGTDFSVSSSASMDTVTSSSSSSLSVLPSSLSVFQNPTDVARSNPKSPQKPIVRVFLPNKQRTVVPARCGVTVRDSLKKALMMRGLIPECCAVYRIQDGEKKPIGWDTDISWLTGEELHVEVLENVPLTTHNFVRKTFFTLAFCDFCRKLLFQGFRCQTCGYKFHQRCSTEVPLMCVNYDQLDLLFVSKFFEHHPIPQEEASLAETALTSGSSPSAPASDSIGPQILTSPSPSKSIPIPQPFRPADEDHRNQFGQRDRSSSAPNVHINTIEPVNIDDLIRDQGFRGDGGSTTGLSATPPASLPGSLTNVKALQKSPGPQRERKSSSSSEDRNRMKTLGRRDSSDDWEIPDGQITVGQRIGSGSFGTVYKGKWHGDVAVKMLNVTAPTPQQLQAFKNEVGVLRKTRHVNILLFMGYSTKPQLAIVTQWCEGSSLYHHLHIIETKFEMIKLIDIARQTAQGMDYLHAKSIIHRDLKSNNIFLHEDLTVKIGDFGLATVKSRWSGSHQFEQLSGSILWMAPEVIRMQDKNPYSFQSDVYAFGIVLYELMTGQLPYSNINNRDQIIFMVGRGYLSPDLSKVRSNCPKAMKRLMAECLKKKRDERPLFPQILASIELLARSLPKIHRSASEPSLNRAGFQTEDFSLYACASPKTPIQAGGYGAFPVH

Structure (SMILES)	inhibition at 0.1 µM (BRAF)	inhibition at 0.1 µM (EGFR (ErbB1))	inhibition at 0.1 µM (FGFR2)	inhibition at 0.1 µM (KDR (VEGFR2))	inhibition at 0.1 µM (PDGFRA (PDGFR alpha))	inhibition at 0.1 µM (SRC)	EC50 (A549)	EC50 (HUVEC)	EC50 (HeLa)	EC50 (HepG2)	EC50 (MDA-MB-231)	inhibition at 0.1 µM (EGFR (ErbB1) T790M L858R)	EC50 (H1975)	EC50 (HT29)	EC50 (HuCCT1)	inhibition at 10 µM (ABL)	inhibition at 10 µM (ABL T315I)	inhibition at 0.1 µM (FGFR1)	inhibition at 0.1 µM (PDGFRB)	EC50 (BxPC-3)	also measured
COC(=O)c1cc2cc(NCc3cc(NC(=O)c4ccccc4OC)ccc3C)cnc2[nH]1 [OR1062]	≥ 50%	< 50%	< 50%	< 50%	≥ 50%	≥ 50%	≥ 1000 nM	100 to 1000 nM	≥ 1000 nM	≥ 1000 nM	100 to 1000 nM										
COC(=O)c1cc2cc(NC(=O)c3cc(NC(=O)c4cncc(C(F)(F)F)c4)ccc3C)cnc2[nH]1 [OR0745]	≥ 50%	< 50%	< 50%	< 50%	≥ 50%	≥ 50%	100 to 1000 nM	100 to 1000 nM	≥ 1000 nM	100 to 1000 nM	100 to 1000 nM	< 50%	≥ 1000 nM	100 to 1000 nM	≥ 1000 nM						EC50 (HuH6 Clone 5): ≥ 1000 nM; EC50 (HuH7): 100 to 1000 nM
COC(=O)c1cc2cc(NCc3cc(NC(=O)c4cc(N(C)C)cc(C(F)(F)F)c4)ccc3C)cnc2[nH]1 [OR0597]	< 50%	< 50%	< 50%	< 50%	< 50%	≥ 50%	100 to 1000 nM	100 to 1000 nM		≤ 100 nM	≤ 100 nM	< 50%	100 to 1000 nM	100 to 1000 nM		≥ 50%	≥ 50%	< 50%	< 50%	100 to 1000 nM	inhibition at 0.1 µM (VEGFR1): < 50%; EC50 (PC-3): ≥ 1000 nM
COC(=O)c1cc2cc(NCc3cc(NC(=O)c4cc(CN5CCN(C)CC5)cc(C(F)(F)F)c4)ccc3C)cnc2[nH]1 [OR0699]	≥ 50%	≥ 50%	< 50%	≥ 50%	≥ 50%	≥ 50%	≤ 100 nM	100 to 1000 nM	100 to 1000 nM	100 to 1000 nM	100 to 1000 nM	< 50%	100 to 1000 nM	≤ 100 nM	100 to 1000 nM					≤ 100 nM	EC50 (HuH6 Clone 5): ≥ 1000 nM; EC50 (HuH7): 100 to 1000 nM
COC(=O)c1cc2cc(NCc3cc(NC(=O)c4cccc(C(C)C)c4)ccc3C)cnc2[nH]1 [OR0610]	< 50%	≥ 50%	< 50%	< 50%	≥ 50%	≥ 50%	100 to 1000 nM	≤ 100 nM		100 to 1000 nM	≤ 100 nM	< 50%	100 to 1000 nM	100 to 1000 nM		≥ 50%	≥ 50%	< 50%	< 50%	100 to 1000 nM	inhibition at 0.1 µM (VEGFR1): < 50%; EC50 (PC-3): ≥ 1000 nM
COC(=O)c1cc2cc(NCc3cc(NC(=O)c4ccc(Cn5cnc(C)c5)c(C(F)(F)F)c4)ccc3C)cnc2[nH]1 [OR0639]	≥ 50%	≥ 50%	< 50%	≥ 50%	≥ 50%	< 50%	100 to 1000 nM	100 to 1000 nM		100 to 1000 nM	100 to 1000 nM	< 50%	≥ 1000 nM	100 to 1000 nM	≥ 1000 nM	≥ 50%	≥ 50%	< 50%	< 50%	100 to 1000 nM	inhibition at 0.1 µM (VEGFR1): < 50%; EC50 (PC-3): ≥ 1000 nM
